According to patent publication US7713969B2, “Compositions and methods for treatment of cancer” (ArQule, Inc., priority 2005, dated 2010):

What was measured:
DLD-1 = assay: Colony formation assay (CFA); type: cell-based; conditions: Homo sapiens; DLD-1, 24 hours exposure, colonies after 14-21 days; read-out: (−)-trans IC50 CFA
Experimental: (§1) To determine c-met inhibition, exponentially growing MCF-7 and MDA-MB-231 human breast cancer cells, DLD1 and HT29 human colon cancer cells, PACA2 and PANC-1 human pancreatic cancer cells and NCI-H441 human non-small cell lung cancer cells (H441) were serum starved in 0.5% FBS and treated with increasing amounts of (−)-trans-3-(5,6-dihydro-4H-pyrrolo [3,2,1-ij]quinolin-1-yl)-4(1H-indol-3-yl)pyrrolidine-2,5-dione for 24 hours as indicated. Cells were then left unstimulated or stimulated with 100 ng/mL HGF for 10 minutes and whole cell extracts were prepared. Whole cell lysates (50 μg) were resolved by SDS-PAGE, transferred onto a PVDF membrane, and an enhanced chemiluminescence assay system (ECL) was used to determine the phosphorylation status of c-Met. A polyclonal antibody against phospho (Y1349) c-Met (phospho-c-Met) was obtained from Biosource International and a monoclonal antibody against β-actin was purchased from Invitrogen. Percent inhibition was determined by densitometry using the Scion Image For colony formation assays (CFA), exponentially growing cells were seeded at 2,000 cells per well in 6-well plates and allowed to attach for 24 hours. Increasing concentrations of (−)-trans-3-(5,6-dihydro-4H-pyrrolo[3,2,1-ij]quinolin-1-yl)-4(1H-indol-3-yl)pyrrolidine-2,5-dione (from 0.01 to 30 μM) were then added to the media for another 24 hours. After 24 hours exposure, the drug was removed and fresh media was added for the next 14-21 days, allowing for colony formation. Cells were fixed and stained with GEMSA (Gibco BRL). Colonies of greater than 50 cells were scored as survivors and percentage of cell survival was plotted to determine the IC50. […] The IC50 of (−)-trans-3-(5,6-dihydro-4H-pyrrolo[3,2,1-ij]quinolin-1-yl)-4(1H-indol-3-yl) pyrrolidine-2,5-dione for c-Met expressing solid tumor types is in the 0.1-0.7 μM range following exposure to (−)-trans-3-(5,6-dihydro-4H-pyrrolo[3,2,1-ij]quinolin-1-yl)-4(1H-indol-3-yl)pyrrolidine-2,5-dione for 24 hours, as determined by colony formation assay (CFA).

H441 = assay: Colony formation assay (CFA); type: cell-based; conditions: Homo sapiens, NCI-H441; H441, 24 hours exposure, colonies after 14-21 days; read-out: (−)-trans IC50 CFA
Experimental: as §1

H446 = assay: Colony formation assay (CFA); type: cell-based; conditions: Homo sapiens, NCI-H446; H446, 24 hours exposure, colonies after 14-21 days; read-out: (−)-trans IC50 CFA
Experimental: as §1

H661 = assay: Colony formation assay (CFA); type: cell-based; conditions: Homo sapiens, NCI-H661; H661, 24 hours exposure, colonies after 14-21 days; read-out: (−)-trans IC50 CFA
Experimental: as §1

HT-29 = assay: Colony formation assay (CFA); type: cell-based; conditions: Homo sapiens; HT-29, 24 hours exposure, colonies after 14-21 days; read-out: (−)-trans IC50 CFA
Experimental: as §1

MCF-7 = assay: Colony formation assay (CFA); type: cell-based; conditions: Homo sapiens, MCF7; MCF-7, 24 hours exposure, colonies after 14-21 days; read-out: (−)-trans IC50 CFA
Experimental: as §1

MDA-MB-231 = assay: Colony formation assay (CFA); type: cell-based; conditions: Homo sapiens; MDA-MB-231, 24 hours exposure, colonies after 14-21 days; read-out: (−)-trans IC50 CFA
Experimental: as §1

PACA2 = assay: Colony formation assay (CFA); type: cell-based; conditions: Homo sapiens, PaCa-2; PACA2, 24 hours exposure, colonies after 14-21 days; read-out: (−)-trans IC50 CFA
Experimental: as §1

PANC-1 = assay: Colony formation assay (CFA); type: cell-based; conditions: Homo sapiens; PANC-1, 24 hours exposure, colonies after 14-21 days; read-out: (−)-trans IC50 CFA
Experimental: as §1

human tumor cell lines = assay: Colony formation assay, summary across cell lines; type: cell-based; conditions: c-Met expressing solid tumor types, 24 hours exposure, read-out: IC50 for c-Met expressing solid tumor types (CFA)
Experimental: To determine c-met inhibition, exponentially growing MCF-7 and MDA-MB-231 human breast cancer cells, DLD1 and HT29 human colon cancer cells, PACA2 and PANC-1 human pancreatic cancer cells and NCI-H441 human non-small cell lung cancer cells (H441) were serum starved in 0.5% FBS and treated with increasing amounts of (−)-trans-3-(5,6-dihydro-4H-pyrrolo [3,2,1-ij]quinolin-1-yl)-4(1H-indol-3-yl)pyrrolidine-2,5-dione for 24 hours as indicated. Cells were then left unstimulated or stimulated with 100 ng/mL HGF for 10 minutes and whole cell extracts were prepared. […] Percent inhibition was determined by densitometry using the Scion Image For colony formation assays (CFA), exponentially growing cells were seeded at 2,000 cells per well in 6-well plates and allowed to attach for 24 hours. […] Colonies of greater than 50 cells were scored as survivors and percentage of cell survival was plotted to determine the IC50. […] The IC50 of (−)-trans-3-(5,6-dihydro-4H-pyrrolo[3,2,1-ij]quinolin-1-yl)-4(1H-indol-3-yl) pyrrolidine-2,5-dione for c-Met expressing solid tumor types is in the 0.1-0.7 μM range following exposure to (−)-trans-3-(5,6-dihydro-4H-pyrrolo[3,2,1-ij]quinolin-1-yl)-4(1H-indol-3-yl)pyrrolidine-2,5-dione for 24 hours, as determined by colony formation assay (CFA).

[1] = tested on: PACA-2 human pancreatic cancer xenograft; assay: Pancreatic cancer xenograft model (Example 88); type: in vivo, mice; conditions: for optimal tumor growth inhibition: daily 5 days on/2 off, 20 doses
Experimental: PACA-2 human pancreatic cancer cells were inoculated subcutaneously into female athymic nude mice (5×10^6 cells/mouse) and allowed to form palpable tumors. Once the tumors reached approximately 60 mm^3, the animals were treated orally with (−)-trans-3-(5,6-dihydro-4H-pyrrolo[3,2,1-ij]quinolin-1-yl)-4(1H-indol-3-yl) pyrrolidine-2,5-dione at 200 mg/kg or 300 mg/kg or vehicle control daily (5 consecutive days, followed by a 2 day dosing holiday). (−)-trans-3-(5,6-dihydro-4H-pyrrolo[3,2,1-ij]quinolin-1-yl)-4(1H-indol-3-yl)pyrrolidine-2,5-dione was formulated in PEG 400:20% Vitamin E TPGS (60:40). The animals received a total of 20 doses of (−)-trans-3-(5,6-dihydro-4H-pyrrolo[3,2,1-ij]quinolin-1-yl)-4(1H-indol-3-yl)pyrrolidine-2,5-dione or vehicle control. Tumors were measured throughout treatment and the post-treatment observation period. Each point represents the mean±SEM of ten tumors. (See FIG. 12)

O=C1NC(=O)C(c2cn3c4c(cccc24)CCC3)C1c1c[nH]c2ccccc12 (single isomer, unassigned; (-)) showed an IC50 (DLD-1) of 700 nM, an IC50 (H441) of 200 nM and an IC50 (H446) of 4 µM. It also gave an IC50 (H661) of 5 µM, an IC50 (HT-29) of 200 nM and an IC50 (MCF-7) of 400 nM. It also gave an IC50 (MDA-MB-231) of 300 nM, an IC50 (PACA2) of 300 nM and an IC50 (PANC-1) of 500 nM. For the same compound, the IC50 (human tumor cell lines) was 100 to 700 nM, the “change in body weight” value ([1]; 200 mg/kg and 300 mg/kg oral administration) was “no significant change in body weight” and the “optimal tumor growth inhibition” value ([1]; 200 mg/kg orally) was 58%. For the same compound, the “optimal tumor growth inhibition” value ([1]; 300 mg/kg orally) was 60%.
